This passage reports Ki results from patent US20140296212A1, “SUBSTITUTED PHENOXYPROPYLCYCLOAMINE DERIVATIVES AS HISTAMINE-3 (H3) RECEPTOR LIGANDS” (CEPHALON, INC., priority 2009, published 2014).

pKi: −log10 of the molar value. Like-named read-outs stand apart in the source and are kept apart here.

One assay addresses T1, human H3 receptor (Homo sapiens, UniProt Q9Y5N1).
T1 construct: expressed in transfected cells
As to the kind of experiment: Human H3 radioligand binding ([3H]-N-alpha-methylhistamine, SPA). Conditions: membranes of CHO cells expressing human H3. The procedure: Cell pellets were resuspended in 5 mM Tris-HCl, pH 7.5 with 5 nM EDTA and a cocktail of protease inhibitors (Complete Protease Inhibitor Tablets, Roche Diagnostics). Cells were disrupted using a polytron cell homogenizer and the suspension was centrifuged at 1000×g for 10 minutes at 4° C. The pellet was discarded and the supernatant centrifuged at 40,000×g for 30 min at 4° C. This membrane pellet was washed in membrane buffer containing 50 mM Tris-HCl, pH 7.5 with 0.6 mM EDTA, 5 mM MgCl2 and protease inhibitors, recentrifuged as above and the final pellet resuspended in membrane buffer plus 250 mM sucrose and frozen at −80° C.
(§1) Membranes were resuspended in 50 mM Tris HCl (pH 7.4), 5 mM MgCl2, 0.1% BSA. The membrane suspensions (10 μg protein per well) were incubated in a 96 well microtiter plate with [^3H]-N-alpha-methylhistamine (approximately 1 nM final concentration), test compounds at various concentrations (0.01 nM-30 μM) and scintillation proximity beads (Perkin Elmer, FlashBlueGPCR Scintillating Beads) in a final volume of 80 μl for 4 hours at room temperature, protected from light. Non-specific binding was determined in the presence of 10 μM clobenpropit. Radioligand bound to receptor, and therefore in proximity to the scintillation beads, was measured using a MicroBeta scintillation counter.

The target of assay [1] is T2, rat histamine H3 receptor (Rattus norvegicus, UniProt Q9QYN8).
T2 construct: encoding the entire 445-amino-acid rat histamine H3 receptor; expressed in transfected cells
As to the kind of experiment: Rat H3 radioligand binding ([3H]-N-alpha-methylhistamine, SPA).
Excerpt: The rat H3 receptor cDNA was PCR amplified from reverse-transcribed RNA pooled from rat thalamus, hypothalamus, striatum and prefrontal cortex with a sequence corresponding to by #338-1672 of Genbank file #NM_053506, encoding the entire 445-amino-acid rat histamine H3 receptor. This was engineered into the pIRES-neo3 mammalian expression vector, which was stably transfected into the CHO-A3 cell line (Euroscreen, Belgium), followed by clonal selection by limiting dilution. Cells were harvested and cell pellets were frozen (−80° C.). Cell pellets were resuspended in 5 mM Tris-HCl, pH 7.5 with 5 nM EDTA and a cocktail of protease inhibitors (Complete Protease Inhibitor Tablets, Roche Diagnostics). Cells were disrupted using a polytron cell homogenizer and the suspension was centrifuged at 1000×g for 10 minutes at 4° C. The pellet was discarded and the supernatant centrifuged at 40,000×g for 30 min at 4° C. This membrane pellet was washed in membrane buffer containing 50 mM Tris-HCl, pH 7.5 with 0.6 mM EDTA, 5 mM MgCl2 and protease inhibitors, recentrifuged as above and the final pellet resuspended in membrane buffer plus 250 mM sucrose and frozen at −80° C.
as §1

Where [2] appears, read: membranes of CHO-A3 cells expressing rat H3, [3H]-N-alpha-methylhistamine, read-out: Rat H3 Ki.

T1 sequence (Q9Y5N1 whole entry): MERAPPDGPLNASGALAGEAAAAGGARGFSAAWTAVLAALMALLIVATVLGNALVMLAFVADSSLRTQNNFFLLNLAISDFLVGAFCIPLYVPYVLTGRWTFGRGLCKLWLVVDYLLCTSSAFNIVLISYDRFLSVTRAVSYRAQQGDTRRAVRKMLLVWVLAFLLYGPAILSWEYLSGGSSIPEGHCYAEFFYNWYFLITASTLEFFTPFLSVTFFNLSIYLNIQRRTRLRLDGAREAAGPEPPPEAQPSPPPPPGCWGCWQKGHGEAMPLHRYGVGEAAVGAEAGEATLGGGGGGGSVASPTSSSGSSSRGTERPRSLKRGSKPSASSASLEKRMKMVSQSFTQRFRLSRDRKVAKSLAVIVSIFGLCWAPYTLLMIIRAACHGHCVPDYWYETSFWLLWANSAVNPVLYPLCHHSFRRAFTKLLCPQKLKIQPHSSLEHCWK
T2 sequence (Q9QYN8 whole entry): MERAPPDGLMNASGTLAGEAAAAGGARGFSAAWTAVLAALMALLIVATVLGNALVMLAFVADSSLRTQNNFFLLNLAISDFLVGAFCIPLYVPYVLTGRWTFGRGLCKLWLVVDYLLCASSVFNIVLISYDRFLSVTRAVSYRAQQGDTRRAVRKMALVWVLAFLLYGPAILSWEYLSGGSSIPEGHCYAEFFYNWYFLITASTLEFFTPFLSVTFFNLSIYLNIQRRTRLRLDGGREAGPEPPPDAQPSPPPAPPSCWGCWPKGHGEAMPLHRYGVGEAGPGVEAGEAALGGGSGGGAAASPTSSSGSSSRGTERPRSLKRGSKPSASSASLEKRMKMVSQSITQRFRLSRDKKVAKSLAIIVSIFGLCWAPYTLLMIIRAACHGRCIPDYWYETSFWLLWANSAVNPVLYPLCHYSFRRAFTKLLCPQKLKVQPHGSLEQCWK

As a reminder, the pKi is the Ki on a negative log10 scale, so that one unit is a factor of ten. With `C[C@@H]1CCCN1CCCOc1ccc(C(=O)CN2CCCCC2)cc1` [Example 8, 1-{4-[3-((R)-2-Methyl-pyrrolidin-1-yl)-propoxy]-phenyl}-2-piperidin-1-yl-ethanone], the pKi (at human H3 receptor; in assay [1] (setting [2])) was 7.00 to 10.00 throughout.

`CC1CCCN1CCCOc1ccc(C(=O)C(C)N2CCOCC2)cc1` (stereo not drawn) [Example 27, 1-{4-[3-(2-Methyl-pyrrolidin-1-yl)-propoxy]-phenyl}-2-morpholin-4-yl-propan-1-one]: the pKi (at human H3 receptor; in assay [1]) was 7.00 to 10.00 in each case.

In the case of `O=C(CN1CCOCC1)c1ccc(OCCCN2CCCC2)cc1` [Example 15, 2-Morpholin-4-yl-1-[4-(3-pyrrolidin-1-yl-propoxy)-phenyl]-ethanone], the pKi at human H3 receptor was 6.30 to 7.00; in assay [1] (setting [2]), 6.00 to 6.30.

For `CC1CCCN1CCCOc1ccc(C(CN2CCOCC2)=NOC(C)(C)C)cc1` (racemic) [Example 165], the pKi (on human H3 receptor; in assay [1] (setting [2])) was 7.00 to 10.00 each time.

For the compound `C[C@@H]1CCCN1CCCOc1ccc(C(=O)CN2CCCCC2=O)cc1` [Example 22, 1-(2-{4-[3-((R)-2-Methyl-pyrrolidin-1-yl)-propoxy]-phenyl}-2-oxo-ethyl)-piperidin-2-one], the pKi on human H3 receptor is 7.00 to 10.00; in assay [1] (setting [2]), 6.30 to 7.00.

On to `C[C@@H]1CCCN1CCCOc1ccc(/C(CN2CCCCC2)=N/OC(C)(C)C)cc1` [Example 160], for which the pKi (at human H3 receptor; in assay [1] (setting [2])) was 7.00 to 10.00 in each case.

As to `C[C@@H]1CCCN1CCCOc1ccc(/C(CN2CCCCC2=O)=N/OC(C)(C)C)cc1` [Example 167], the pKi (at human H3 receptor; in assay [1] (setting [2])) was 7.00 to 10.00 in each case.

With `O=C(CN1CCOCC1)c1ccc(OCCCN2CCCC2=O)cc1` [Example 67, 1-{3-[4-(2-Morpholin-4-yl-acetyl)-phenoxy]-propyl}-pyrrolidin-2-one], the pKi (on human H3 receptor; in assay [1] (setting [2])) was below 6.00 each time.

`C[C@@H]1CCCN1CCCOc1ccc(C(=O)CN2CCC(C#N)CC2)cc1` [Example 43, 1-(2-{4-[3-((R)-2-Methyl-pyrrolidin-1-yl)-propoxy]-phenyl}-2-oxo-ethyl)-piperidine-4-carbonitrile]: the pKi (at human H3 receptor; in assay [1] (setting [2])) was 7.00 to 10.00 each time.

Consider `C[C@@H]1CCCN1CCCOc1ccc(C(=O)CN2Cc3ccc(F)cc3C2)cc1` [Example 86, 2-(5-Fluoro-1,3-dihydro-isoindol-2-yl)-1-{4-[3-((R)-2-methyl-pyrrolidin-1-yl)-propoxy]-phenyl}-ethanone], for which the pKi (on human H3 receptor; in assay [1] (setting [2])) was 7.00 to 10.00 in each case.

As to `C[C@@H]1CCCN1CCCOc1ccc(C(=O)CN2CCO[C@H](c3ccccc3)C2)cc1` [Example 40, 1-{4-[3-((R)-2-Methyl-pyrrolidin-1-yl)-propoxy]-phenyl}-2-((R)-2-phenyl-morpholin-4-yl)-ethanone], the pKi (on human H3 receptor; in assay [1] (setting [2])) was 7.00 to 10.00 throughout.

Regarding `C[C@@H]1CCCN1CCCOc1ccc(C(=O)CN2CCCC2=O)cc1` [Example 21, 1-(2-{4-[3-((R)-2-Methyl-pyrrolidin-1-yl)-propoxy]-phenyl}-2-oxo-ethyl)-pyrrolidin-2-one], the pKi at human H3 receptor was 7.00 to 10.00; in assay [1] (setting [2]), 6.30 to 7.00.

With `Cc1nc2ccccc2n1CC(=O)c1ccc(OCCCN2CCC[C@H]2C)cc1` [Example 142, 2-(2-Methyl-benzoimidazol-1-yl)-1-{4-[3-((R)-2-methyl-pyrrolidin-1-yl)-propoxy]-phenyl}-ethanone], the pKi (at human H3 receptor; in assay [1] (setting [2])) was 7.00 to 10.00 in each case.

Turning to `C[C@@H]1CCCN1CCCOc1ccc(C(=O)CN2Cc3ccccc3C2)cc1` [Example 73, 2-(1,3-Dihydro-isoindol-2-yl)-1-{4-[3-((R)-2-methyl-pyrrolidin-1-yl)-propoxy]-phenyl}-ethanone], the pKi (on human H3 receptor; in assay [1] (setting [2])) was 7.00 to 10.00 in each case.

In the case of `C[C@@H]1CN(CC(=O)c2ccc(OCCCN3CCC[C@H]3C)cc2)C[C@H](C)O1` [Example 38, 2-((2R,6S)-2,6-Dimethyl-morpholin-4-yl)-1-{4-[3-((R)-2-methyl-pyrrolidin-1-yl)-propoxy]-phenyl}-ethanone], the pKi (at human H3 receptor; in assay [1] (setting [2])) was 7.00 to 10.00 each time.
